Measurements from PubChem BioAssay AID328 (DTP/NCI, 2004).
“And” between values parts separate entries of the source, which are not always exact repeats. Equal entries are not always repeated. Inconclusive results and toxic doses are left out.

Tested on: BDF1 mice, P388 leukemia ip, median survival T/C
Experiment: NCI In Vivo Anticancer Drug Screen. Data for tumor model P388 Leukemia (intraperitoneal) in B6D2F1 (BDF1) mice
Settings: endpoint: median survival time, higher = longer survival
Outline: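 Vehicle-dosed animals serve as the reference; survival of compound-dosed, tumour-implanted mice is divided by it.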

[1] = dose: 100.0 mg/kg/injection, schedule: Q04DX003 (ip), vehicle: Klucel (hydroxypropylcellulose) (HPC)
[2] = dose: 200.0 mg/kg/injection, schedule: Q04DX003 (ip), vehicle: Klucel (hydroxypropylcellulose) (HPC)
[3] = dose: 400.0 mg/kg/injection, schedule: Q04DX003 (ip), vehicle: Klucel (hydroxypropylcellulose) (HPC)
[4] = dose: 100.0 mg/kg/injection, schedule: Q04DX003 (ip), vehicle: saline with Tween-80
[5] = dose: 25.0 mg/kg/injection, schedule: Q01DX009 (ip), vehicle: saline with Tween-80
[6] = dose: 25.0 mg/kg/injection, schedule: Q04DX003 (ip), vehicle: saline with Tween-80
[7] = dose: 50.0 mg/kg/injection, schedule: Q01DX009 (ip), vehicle: saline with Tween-80
[8] = dose: 50.0 mg/kg/injection, schedule: Q04DX003 (ip), vehicle: saline with Tween-80
[9] = dose: 50.0 mg/kg/injection, schedule: Q01DX009 (ip), vehicle: water
[10] = dose: 100.0 mg/kg/injection, schedule: Q01DX009 (ip), vehicle: water
[11] = dose: 100.0 mg/kg/injection, schedule: Q04DX003 (ip), vehicle: water
[12] = dose: 200.0 mg/kg/injection, schedule: Q01DX009 (ip), vehicle: water
[13] = dose: 200.0 mg/kg/injection, schedule: Q04DX003 (ip), vehicle: water
[14] = dose: 400.0 mg/kg/injection, schedule: Q01DX009 (ip), vehicle: water
[15] = dose: 400.0 mg/kg/injection, schedule: Q04DX003 (ip), vehicle: water
[16] = dose: 100.0 mg/kg/injection, schedule: Q01DX009 (ip), vehicle: saline with Tween-80
[17] = dose: 200.0 mg/kg/injection, schedule: Q01DX009 (ip), vehicle: saline with Tween-80

Cc1ncc([N+](=O)[O-])n1CCO
T/C (dose: 50.0 mg/kg/injection, schedule: Q04DX003 (ip), vehicle: Klucel (hydroxypropylcellulose) (HPC)): 100 % of control | T/C [1]: 100 % of control | T/C [2]: 95 % of control | T/C [3]: 91 % of control

COC(=O)[C@@H](C)[C@@H](O)[C@@H](C)N
T/C [4]: 101 % of control | T/C (dose: 200.0 mg/kg/injection, schedule: Q04DX003 (ip), vehicle: saline with Tween-80): 99 % of control | T/C (dose: 400.0 mg/kg/injection, schedule: Q04DX003 (ip), vehicle: saline with Tween-80): 103 % of control

c1cc2ccsc2cn1
T/C (dose: 12.5 mg/kg/injection, schedule: Q01DX009 (ip), vehicle: saline with Tween-80): 103 % of control | T/C [5]: 92 % of control | T/C [6]: 95 % of control | T/C [7]: 92 % of control | T/C [8]: 91 % of control

CCC(C)C(NC(=O)CCN)C(=O)O (centres undefined)
T/C (dose: 50.0 mg/kg/injection, schedule: Q01DX005 (ip), vehicle: saline): 104 % of control | T/C (dose: 100.0 mg/kg/injection, schedule: Q01DX005 (ip), vehicle: saline): 103 % of control | T/C (dose: 200.0 mg/kg/injection, schedule: Q01DX005 (ip), vehicle: saline): 100 % of control

C/C(=C\Cl)CO
T/C (dose: 56.25 mg/kg/injection, schedule: Q01DX001 (ip), vehicle: saline): 95 % of control | T/C (dose: 56.25 mg/kg/injection, schedule: Q04DX003 (ip), vehicle: saline): 100 % of control | T/C (dose: 112.5 mg/kg/injection, schedule: Q01DX001 (ip), vehicle: saline): 100 % of control | T/C (dose: 112.5 mg/kg/injection, schedule: Q04DX003 (ip), vehicle: saline): 95 % of control | T/C (dose: 150.0 mg/kg/injection, schedule: Q01DX009 (ip), vehicle: alcohol): 95 % of control | T/C (dose: 225.0 mg/kg/injection, schedule: Q01DX001 (ip), vehicle: saline): 90 % of control | T/C (dose: 225.0 mg/kg/injection, schedule: Q01DX009 (ip), vehicle: alcohol): 100 % of control | T/C (dose: 225.0 mg/kg/injection, schedule: Q04DX003 (ip), vehicle: saline): 90 % of control

CCC(CO)NC(=O)Nc1cccc2ccccc12 (centres undefined)
T/C (dose: 100.0 mg/kg/injection, schedule: Q01DX001 (ip), vehicle: saline with Tween-80): 109 % of control | T/C (dose: 200.0 mg/kg/injection, schedule: Q01DX001 (ip), vehicle: saline with Tween-80): 100 % of control | T/C (dose: 400.0 mg/kg/injection, schedule: Q01DX001 (ip), vehicle: saline with Tween-80): 109 % of control

Cc1ccc(C)c(CCN)c1
T/C [5]: 122 % of control | T/C [6]: 100 % of control | T/C [7]: 104 % of control | T/C [8]: 100 % of control | T/C [4]: 100 % of control

NC(N)=Nc1ccc(C(=O)Oc2ccc(OC(=O)c3cccc(N=C(N)N)c3)cc2)cc1
T/C [9]: 96 % of control | T/C (dose: 50.0 mg/kg/injection, schedule: Q04DX003 (ip), vehicle: water): 103 % of control | T/C [10]: 96 % of control | T/C [11]: 94 % of control | T/C [12]: 99 % of control | T/C [13]: 100 % of control | T/C [14]: 114 % of control | T/C [15]: 105 % of control

OC(C1CCCCC1)(C1CCCCC1)C1CCCCC1
T/C (dose: 100.0 mg/kg/injection, schedule: Q01DX009 (ip), vehicle: other): 104 % of control | T/C [1]: 91 % of control | T/C (dose: 200.0 mg/kg/injection, schedule: Q01DX009 (ip), vehicle: other): 100 % of control | T/C [2]: 100 % of control | T/C (dose: 400.0 mg/kg/injection, schedule: Q01DX009 (ip), vehicle: other): 109 % of control | T/C [3]: 91 % of control

CCOC(=O)N1C=Cn2c(cnc2C)C1O (centres undefined)
T/C (dose: 50.0 mg/kg/injection, schedule: Q01DX009 (ip), vehicle: saline): 105 % of control | T/C [9]: 110 % of control | T/C (dose: 100.0 mg/kg/injection, schedule: Q01DX009 (ip), vehicle: saline): 97 % of control | T/C [10]: 103 % of control | T/C (dose: 100.0 mg/kg/injection, schedule: Q04DX003 (ip), vehicle: saline): 100 % of control | T/C [11]: 96 % of control | T/C [12]: 94 % of control | T/C (dose: 200.0 mg/kg/injection, schedule: Q04DX003 (ip), vehicle: saline): 102 % of control | T/C [13]: 96 % of control | T/C [14]: 94 % of control | T/C (dose: 400.0 mg/kg/injection, schedule: Q04DX003 (ip), vehicle: saline): 93 % of control | T/C [15]: 88 % of control

Nc1ccn(CC(=O)c2ccc(Cl)s2)c(=O)n1
T/C [9]: 100 % of control | T/C [10]: 108 % of control | T/C [12]: 100 % of control

CCOC(=O)CCC(NC(=O)c1ccc(N(C)S(=O)(=O)c2ccc(C)cc2)c(F)c1)C(=O)OCC (centres undefined)
T/C (dose: 75.0 mg/kg/injection, schedule: Q04DX003 (ip), vehicle: saline): 95 % of control | T/C (dose: 150.0 mg/kg/injection, schedule: Q04DX003 (ip), vehicle: saline): 108 % of control | T/C (dose: 300.0 mg/kg/injection, schedule: Q04DX003 (ip), vehicle: saline): 100 % of control

N#Cc1c(Nc2cccc(Cl)c2)sc(C(=O)c2cc3cc(Cl)ccc3o2)c1N
T/C [7]: 109 % of control | T/C [16]: 100 % of control | T/C [17]: 93 % of control

CS(=O)(=O)OCCN(CCOS(C)(=O)=O)c1ccc(N=O)cc1
T/C (dose: 0.5 mg/kg/injection, schedule: Q01DX010 (ip), vehicle: saline): 122 % of control | T/C (dose: 1.0 mg/kg/injection, schedule: Q01DX010 (ip), vehicle: saline): 104 % of control | T/C (dose: 2.0 mg/kg/injection, schedule: Q01DX010 (ip), vehicle: saline): 86 % of control and 113 % of control | T/C (dose: 62.5 micrograms/kg/injection, schedule: Q01DX010 (ip), vehicle: saline): 158 % of control | T/C (dose: 125.0 micrograms/kg/injection, schedule: Q01DX010 (ip), vehicle: saline): 166 % of control

OC(CCl)C(O)C(O)C(O)CCl (centres undefined)
T/C [16]: 100 % of control | T/C [17]: 113 % of control | T/C (dose: 400.0 mg/kg/injection, schedule: Q01DX009 (ip), vehicle: saline with Tween-80): 100 % of control
